PMC4540177 (Bioorganic & medicinal chemistry letters, 2013)

Tests used:
[1] = Rat pharmacokinetics; assay type: in vivo, Sprague-Dawley rats
[2] = Mouse brain penetration; assay type: in vivo, C57Bl6 mice

| Compound | in vivo properties (in words) ([1]; rat pk) | half live (in words) ([1]; rat) | oral exposure (in words) ([1]; rat) | brain penetration (in words) [2] |
| --- | --- | --- | --- | --- |
| Cc1ncn(-c2ccc(Nc3cc(-c4nocc4-c4cn[nH]c4C)ccn3)cc2)n1 [Compound 28] | poor in vivo properties | – | – | – |
| Cc1ncn(-c2ccc(Nc3cc(-c4nocc4-c4cnn(C)c4)ccn3)cc2)n1 [Compound 27] | – | short half live | good oral exposure | poor brain penetration |
